Results on one molecule are retold here after article PMC12363935, “Unc-51 Like Kinase 3 (ULK3) is essential for autophagy and cell survival in multiple myeloma” (Research Square, 2025).

For data set [1], the system named is NTC CTRL U266 MM cells. The experiment in a line: NTC CTRL U266 in vivo model. The settings on record: 10 mg/kg/day subcutaneously. The text has this:
Supplementary Figure 7. ULK3 ablation suppresses MM cell growth. A. Immunoblotting for ULK3 expression in parental, NTC CTRL and ULK3 KO U266 cells. Of note, NTC CTRL and ULK3 KO were used for the in vivo ULK3 KO model. Densitometric quantification values are annotated on the blot. B. Mice (n = 20/group) were tail vein injected […]
with 1 x106 NTC CTRL and ULK3 KO U266 MM cells. […]
onset of the disease compared to NTC CTRL . (C) Representative confocal microscopy images of formalin fixed, paraffin embedded tumors (5-micron sections), stained for human mitochondria (hMITO) as a readout of MM cells colocalization. Alexa Fluor Plus 488 goat anti-mouse were used as secondary antibody. (D) MTS showing the inhibitory profile of MA9060 on NTC CTRL and ULK3 KO for U266 cell line. Treatment with MA9060 (0-100 uM) for 48h show reduced activity of MA9060 in ULK3 KO cell lines. E. Mice were divided respectively in two groups, vehicle control (n = 10, β-HCD Captisol) or MA9-060 (n = 10). Treatment started at day 20 (M-F, 10 mg/kg/day subcutaneously). MA9-060 treatment improves overall survival in the NTC CTRL arm (median 41 days post-tumor […]
38 For MA9 therapy efficacy, mice were treated with vehicle (n=10) or MA9 (10 mg/kg/day, 39 subcutaneously, M-F from day 20; n=10) (Supplementary Fig. 7E, F). Survival and toxicity 40 (weight, clinical signs) was monitored. […]

Data set [2] concerns autophagy proteins in U266 MM cells. Kind of data set: Immunoblot densitometry of autophagy proteins. It counts as cell-based, Human. The settings on record: U266, 6h, MA9-060 1μM, JQ1 10μM, CQ 1μM. The method, then:
Figure 3. Anti-myeloma activity of the MA9–060 autophagy inhibitor. A. Chemical structure of the autophagy inhibitor MA9–060. […] Chloroquine (CQ) (1μM) served as a positive control for autophagy inhibition. C. […] Hoechst 33342 dye appears here as the nuclear blue staining (Multiple comparisons ANOVA, p <0.0001).
157 5872S). Protein concentration was quantified by Thermo Scientific™ Pierce™ BCA™ Protein
30 μg protein was loaded to 10%-15% gel and ran at
159 100V for 2 hours. Later protein was transferred to PVDF membrane and blocked with 5% skimmed
160 milk in TBST (10 mM Tris/HCl pH8.0, 0.12M NaCl, 0.1% Tween 20) containing 5% BSA [8] for
163 at 4°C overnight. Membranes were washed 3 times,10 minutes with TBS. Then incubated with
164 appropriate secondary antibodies at 1:1000 ratio in skimmed milk or 2% BSA. The membranes
165 were washed again 3 times for 10 minutes with TBST. ECL reagents were added to the membrane
166 and blot was developed by LICOR Imaging Studio.
167 All immunoblotting assays were performed at least in three replicates and representative
168 images are shown. Commercially available antibodies and their dilutions are listed in
169 Supplementary Table 5. Immunoblotting images were acquired and quantified using LICOR
170 Image Studio Quant software. […]

`Cc1cnc(Nc2ccc(C3CCN(C)CC3)c(F)c2)nc1Nc1ccc(Cl)c(NS(=O)(=O)C(C)(C)C)c1` [MA9060]: in data set [1], the “toxicity (weight loss <20%, ruffled hair)” value was “did not show any signs of toxicity”. This molecule also came in with a median overall survival in data set [1] (NTC CTRL arm, M-F from day 20) of 41 days. The same molecule had an LC3II densitometry in data set [2] (CTRL 0.34) of 0.10. In addition, in data set [2] (CTRL 3.01), the LC3I densitometry stood at 1.78. In addition, the ULK1 densitometry in data set [2] (CTRL 7.21) is recorded as 2.44. The same molecule displayed a ULK3 densitometry in data set [2] (CTRL 15.17) of 3.33.
